Results published in patent US20040121410A1, “Pain signaling molecules” (priority 2002, published 2004).
Entries after “also recorded” stand apart in the source; their conditions may differ. Like-named read-outs stand apart in the source and are kept apart here. Where a SMILES comes first, the peptide text is derived from it. Where no end group is shown, it is not given here. [ ]: non-standard residue; d: D form. pGlu = O=C1CC[C@@H](C(=O)O)N1

Tests used:
[1] = target: T1, MrgC11 (Mus musculus, UniProt Q8CIP3); assay: calcium-mobilization assay (FLEXstation, Fura-2/AM) in HEK-MrgC11 cells; format: cell-based; settings: for activation of MrgC11 (in words): calcium response
T1 construct: A full-length MrgC11 cDNA was cloned from the newborn DRG cDNA library; expressed in transfected cells
T1 sequence (Q8CIP3 1-322): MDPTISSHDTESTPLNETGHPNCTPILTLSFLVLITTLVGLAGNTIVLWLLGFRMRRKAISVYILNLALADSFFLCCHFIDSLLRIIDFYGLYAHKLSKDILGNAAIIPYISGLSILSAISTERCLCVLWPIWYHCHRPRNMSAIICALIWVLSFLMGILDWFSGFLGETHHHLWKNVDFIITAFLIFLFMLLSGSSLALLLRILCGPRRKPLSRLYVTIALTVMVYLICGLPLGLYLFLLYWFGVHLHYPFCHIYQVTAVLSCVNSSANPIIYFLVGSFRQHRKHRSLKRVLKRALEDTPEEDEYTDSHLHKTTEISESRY
Experimental: (§1) To address the questions of the ligand selectivity of the MrgC11 receptor, human embryonic kidney (HEK) 293 cells stably expressing either MrgA1 or MrgC11 were established. Neuropeptides were screened to identify ligands and agonists.
(§2) HEK293 cells were transfected with cDNA encoding the MrgAl-GFP, mNPFF2-GFP or MrgC11-GFP in pcDNA3.1/Zio(+) plasmid (Invitrogen) using the FuGENE6 transfection reagent (Roche Molecular Biomolecules). The transfected cells were selected with 400 μg/ml zeocin in DMEM supplemented with 10% FBS. Each cloned cell was further selected for membrane localization of receptor-GFP fusion protiens.
(§3) The selected cells were maintained in the same medium supplemented with 200 μg/ml zeocin. The stable cell lines were designated HEK-MrgA1, HEK-NPFF2 and HEK-MrgC11.
(§4) To identify putative ligands for MrgC11 and MrgA1 receptors, HEK-MrgC11 or HEKMrgA1 stable cell lines were screened in a calcium-mobilization assay using a fluorescence-imaging plate reader (FLEXstation). Briefly, HEK-MrgA1 or HEK-MrgC11 were plated in 96-black-well plates (Corning) and grown to confluence. After incubation with Fura-2/AM for >20 min, cells were washed and equilibrated for 20 min with HBSS (Hanks' balanced salt solution) assay buffer. The fluorescence emission caused by intracellular calcium mobilization elicited by agonists was determined by using a fluorometric imaging plate reader, Flexstation (Molecular Devices). All peptides were from Phoenix Pharmaceuticals (St. Joseph, Mo.), Bachem, American Peptide (Sunnyvale, Calif.), or Sigma.

[2] = target: T2, MrgA1 (Mus musculus, UniProt Q91WW5); assay: calcium-mobilization assay (FLEXstation, Fura-2/AM) in HEK-MrgA1 cells; format: cell-based
T2 construct: expressed in transfected cells
T2 sequence (Q91WW5 1-304): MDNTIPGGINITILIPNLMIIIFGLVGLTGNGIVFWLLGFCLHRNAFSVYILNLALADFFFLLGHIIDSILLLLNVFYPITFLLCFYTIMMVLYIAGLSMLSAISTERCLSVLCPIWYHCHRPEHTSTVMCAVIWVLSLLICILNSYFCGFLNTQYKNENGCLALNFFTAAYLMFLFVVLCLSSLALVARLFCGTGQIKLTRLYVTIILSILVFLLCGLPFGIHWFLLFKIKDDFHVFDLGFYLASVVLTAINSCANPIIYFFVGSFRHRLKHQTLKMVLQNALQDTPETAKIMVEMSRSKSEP
Experimental: as §1, §2, §3, §4

[3] = tested on: FLRFa-induced calcium release in HEK-MrgA1; assay: FLRFa-induced [Ca2+]i response in HEK-MrgA1 with pathway inhibitors; format: cell-based, human; settings: HEK-MrgA1, 3 μM FLRFa; 10 μM U73122 or U73343 10 min pretreatment; 1 μM TG in 2 mM EGTA
Experimental: (§5) Cells loaded with Fura-2/AM were stimulated with each agonist and fluorescence was recorded. Graphs represent an average plot of [Ca^2+]i measurements versus time (in s) in a minimum of 8 cells from representative experiments. Individual data points represent images taken at 0.8-s intervals. […] After a 10 minute pretreatment with U73122 and U73343, each agonist was added. FIGS. 2B and E show the extracellular [Ca^2+] dependency of Ca^2+ mobilization. Cells were preincubated for 2 minutes with 2 mM EGTA (open circles) or normal medium containing 1.2 mM calcium (closed circles) and then 3 μM FLRFa or 1 μM γ2-MSH was added. […] In the presence of 2 mM EGRA, TG (1 μM final concentration) was added to deplete internal Ca^2+ stores.
(§6) The calcium source responsible for the initial peak in [Ca^2+]i was determined by depleting internal calcium stores with the application of 1 μM TG (FIGS. 2C and F).
(§7) Heterotrimeric G proteins of the Gαi and Gαq class are involved in the propagation of signals from GPCRs leading to [Ca^2+]i elevation (Guderman et al. Ann. Rev. Pharmacol. Toxicol. 36:429-459 (1996)). To determine whether Gαi/o proteins are involved in the [Ca^2+]i response, we pretreated HEK-MrgA1 or HEK-MrgC11 cells with PTX (100 ng/ml) for 16 h. […] The dose dependency in [Ca^2+]i responses for both receptors were not affected by PTX (FIGS. 4A and D).

[4] = tested on: γ2-MSH-induced calcium release in HEK-MrgC11; assay: γ2-MSH-induced [Ca2+]i response in HEK-MrgC11 with pathway inhibitors; format: cell-based, human; settings: HEK-MrgC11, 1 μM γ2-MSH; 10 μM U73122 or U73343 10 min pretreatment; 1 μM TG in 2 mM EGTA
Experimental: as §5, §6, §7

[5] = Table 1, HEK-MrgA1 cells, FLEXstation assay, means ± SEM, triplicate, Inactive = no activation detected at concentrations up to 10 mM
[6] = Table 1, HEK-MrgC11 cells, FLEXstation assay, means ± SEM, triplicate, Inactive = no activation detected at concentrations up to 10 mM, read-out: EC50 MrgC11
[7] = Table 2, chirally modified FMRFa peptides, HEK-MrgA1 cells, mean ± SEM, triplicate
[8] = Table 2, chirally modified FMRFa peptides, HEK-MrgA1 cells, mean ± SEM, triplicate, read-out: EC50 MrgA1
[9] = Table 2, chirally modified FMRFa peptides, HEK-MrgC11 cells, mean ± SEM, triplicate, read-out: EC50 MrgC11

Compound	EC50 [1]	EC50 MrgA1 [2, 5]	EC50 [1, 6]	other results
CC(C)C[C@H](NC(=O)[C@@H](N)Cc1ccccc1)C(=O)N[C@@H](Cc1ccccc1)C(=O)N[C@@H](CCC(N)=O)C(=O)N1CCC[C@H]1C(=O)N[C@@H](CCC(N)=O)C(=O)N[C@@H](CCCN=C(N)N)C(=O)N[C@@H](Cc1ccccc1)C(N)=O [NPFF]	54 ± 5 nM			EC50 [2]: 2150 nM
YGGFMRF-OH [Met-Enk-RF]	545 ± 19 nM	Inactive		activation of MrgA1 (in words) ([2]; HEK-MrgA1 cells, calcium response): complete loss of activity
CC(C)C[C@H](NC(=O)CNC(=O)[C@H](Cc1ccccc1)NC(=O)[C@H](CO)NC(=O)[C@H](CC(N)=O)NC(=O)[C@H](Cc1c[nH]c2ccccc12)NC(=O)[C@H](CC(N)=O)NC(=O)[C@@H](N)Cc1ccc(O)cc1)C(=O)N[C@@H](CCCNC(=N)N)C(=O)N[C@@H](Cc1ccccc1)C(N)=O [Kiss(112-121)]		Inactive	50 ± 4 nM	
N=C(N)NCCC[C@H](N)C(=O)N[C@@H](Cc1ccccc1)C(N)=O [R-Fa]	460 ± 35 nM			EC50 MrgA1, nM [2, 7]: Inactive; EC50 MrgA1, nM ([2]; Table 2, chirally modified FMRFa peptides, HEK-MrgA1 cells, mean ± SEM, triplicate, listed as RFa): not able to activate
CSCC[C@H](NC(=O)[C@@H](N)Cc1ccccc1)C(=O)N[C@@H](CCCNC(=N)N)C(=O)N[C@H](Cc1ccccc1)C(N)=O [F-M-R-(D)Fa]				EC50 MrgC11, nM ([1]; Table 2, chirally modified FMRFa peptides, HEK-MrgC11 cells, mean ± SEM, triplicate): Inactive; EC50 [2, 8]: 643 ± 80 nM
β-MSH				activation of MrgC11 (in words) ([1]; HEK-MrgC11 cells): not activated
C/C=C(/C)C(=O)O[C@H]1C(C)=C2[C@H]([C@@H]1OC(=O)CCCCCCC)[C@@](C)(OC(C)=O)C[C@H](OC(=O)CCC)[C@@]1(O)[C@H]2OC(=O)[C@@]1(C)O [TG, thapsigargin]				effect on FLRFa-induced calcium response [3]: prevents; also recorded: blocked the response; effect on γ2-MSH-induced calcium response [4]: prevents; also recorded: blocked the response
CC(C)C[C@H](NC(=O)[C@H](CC(N)=O)NC(=O)[C@@H]1CCCN1C(=O)[C@@H](N)C(C)C)C(=O)N1CCC[C@H]1C(=O)N[C@@H](CCC(N)=O)C(=O)N[C@@H](CCCNC(=N)N)C(=O)N[C@@H](Cc1ccccc1)C(N)=O [RFRP-3]		Inactive	113 ± 5 nM	
MPHSFANLPLRF-NH2 [RFRP-1] [listing 1 of 2 here]			1240 nM	
CSCC[C@@H](NC(=O)[C@@H](N)Cc1ccccc1)C(=O)N[C@@H](CCCNC(=N)N)C(=O)N[C@@H](Cc1ccccc1)C(N)=O [F-(D)M-R-Fa]				EC50 [1, 9]: 11 ± 4 nM; EC50 [2, 8]: 1260 nM
COc1ccc2c(c1)CC[C@@H]1[C@@H]2CC[C@]2(C)[C@@H](NCCCCCCN3C(=O)C=CC3=O)CC[C@@H]12 [U73122]				effect on FLRFa-induced calcium response [3]: blocked; also recorded: completely inhibited; effect on γ2-MSH-induced calcium response [4]: blocked; also recorded: completely inhibited
VGRPEWWMDYQKRY-NH2 [BAM-15-amide]			479 ± 14 nM	EC50 ([2]; Table 1, HEK-MrgA1 cells, FLEXstation assay, means ± SEM, triplicate, Inactive = no activation detected at concentrations up to 10 mM, read-out: EC50 MrgA1): 8770 nM
MPHSFANLPLRF-NH2 [RFRP-1] [listing 2 of 2 here]		Inactive		
YGGFMRRVGRPEWWMDYQKRYGGFL [BAM3200]	300 ± 124 nM			EC50 [2]: > 10000 nM
YGGFMRF-NH2 [Met-ENK-RFamide]	133 ± 20 nM			EC50 [2]: 5250 nM
TPDINPAWYTGRGIRPVGRF-NH2 [PrRP-20]		Inactive	144 ± 18 nM	
CSCC[C@H](NC(=O)[C@H](Cc1ccccc1)NC(=O)CNC(=O)CNC(=O)[C@@H](N)Cc1ccc(O)cc1)C(=O)N[C@@H](CCCNC(=N)N)C(=O)N[C@@H](CCCNC(=N)N)C(=O)N[C@H](C(=O)NCC(=O)N[C@@H](CCCNC(=N)N)C(=O)N1CCC[C@H]1C(=O)N[C@@H](CCC(=O)O)C(=O)N[C@@H](Cc1c[nH]c2ccccc12)C(=O)N[C@@H](Cc1c[nH]c2ccccc12)C(=O)N[C@@H](CCSC)C(=O)N[C@@H](CC(=O)O)C(=O)N[C@@H](Cc1ccc(O)cc1)C(=O)N[C@@H](CCC(N)=O)C(=O)N[C@@H](CCCCN)C(=O)N[C@@H](CCCNC(=N)N)C(=O)N[C@@H](Cc1ccc(O)cc1)C(=O)NCC(=O)O)C(C)C [BAM-22P]	26 ± 10 nM			EC50 [2]: 2540 nM
CSCC[C@H](NC(=O)[C@H](N)Cc1ccccc1)C(=O)N[C@@H](CCCNC(=N)N)C(=O)N[C@@H](Cc1ccccc1)C(N)=O [(D)F-M-R-Fa]				EC50 [1, 9]: 108 ± 1 nM; EC50 [2, 8]: 882 ± 55 nM
CSCC[C@H](NC(=O)[C@@H](NC(=O)[C@@H](N)Cc1ccc(O)cc1)C(C)C)C(=O)NCC(=O)N[C@@H](Cc1c[nH]cn1)C(=O)N[C@@H](Cc1ccccc1)C(=O)N[C@@H](CCCNC(=N)N)C(=O)N[C@@H](Cc1c[nH]c2ccccc12)C(=O)N[C@@H](CC(=O)O)C(=O)N[C@@H](CCCNC(=N)N)C(=O)N[C@@H](Cc1ccccc1)C(N)=O [γ1-MSH]		Inactive	17 ± 3 nM	
N=C(N)NCCC[C@H](N)C(=O)N[C@@H](Cc1ccccc1)C(=O)O [R-F—OH]				EC50 [1, 9]: 632 ± 124 nM; EC50 MrgA1, nM [2, 7]: Inactive; EC50 MrgA1, nM ([2]; Table 2, chirally modified FMRFa peptides, HEK-MrgA1 cells, mean ± SEM, triplicate, listed as RF-OH): not able to activate
AGEGLNSQFWSLAAPQRF-NH2 [NPAF]	282 ± 30 nM	Inactive		
SGQSWRPQGRF-NH2 [ACEP-1]		Inactive	46 ± 12 nM	
IRPKLKWDNQKRYG [Dynnorphin-14]	22 ± 1 nM	Inactive		
KHEYLRF-NH2 [AF-2]	130 ± 24 nM	Inactive		
α-MSH				activation of MrgC11 (in words) ([1]; HEK-MrgC11 cells): not activated
CC(C)C[C@H](NC(=O)CNC(=O)[C@H](Cc1ccccc1)NC(=O)[C@H](CO)NC(=O)[C@H](CC(N)=O)NC(=O)[C@H](Cc1c[nH]c2ccccc12)NC(=O)[C@H](CC(N)=O)NC(=O)[C@H](Cc1ccc(O)cc1)NC(=O)[C@H](CC(N)=O)NC(=O)[C@@H]1CCCN1C(=O)[C@H](CC(C)C)NC(=O)[C@H](CC(=O)O)NC(=O)[C@@H](N)CCCCN)C(=O)N[C@@H](CCCNC(=N)N)C(=O)N[C@@H](Cc1ccccc1)C(N)=O [Kiss(107-121)]		Inactive	102 ± 24 nM	
N=C(N)NCCC[C@H](NC(=O)CNC(=O)[C@@H]1CCC(=O)N1)C(=O)N[C@@H](Cc1ccccc1)C(N)=O [AnthoRF-amide] ([pGlu]GRF-NH2)		Inactive	16 ± 6 nM	
